These results are taken from patent US12533300B2, “Self-assembling peptides in the prevention and treatment of cavitated carious lesions” (Credentis AG, priority 2019, dated 2026).

Data set [1] in a line: Release profile of P11-4 from varnish and glass ionomer cement (280 nm). The data set is classed as physicochemical. On the procedure:
The material was prepared and applied as per instructions for use (IFU), usually describing the use of 0.5-0.75 mL of the respective products. To mimic the saliva, Phosphate Buffered Saline (PBS) was used. PBS matches the osmolarity and ion concentrations of the human body—it is isotonic. To mimic the constant saliva flux, the applied amount was placed in a solution equal to 1 h saliva flux, which is about 20 mL. The diffusion of the material was assessed at 500 nm with a photometer.
Release Profile a) Preparation of Varnish (Duraphat) and Paro Amin Fluor Gelée • Per suppliers IFU, it is recommend to add 0.5-1 mL of the varnish to a carious site. The concentration of Congo Red was chosen to lead a distinct signal in the UV Vis. • Place 12 mg Congo Red in 2 mL Eppendorf tube • Add 2 mL of the varnish directly into the tube with a syringe • Mix Congo Red and varnish vigorously until content uniformity is reached • Pick up product with syringe • Place 0.5-0.75 ml of the product on a microscopic slide as a thin film—as recommended per IFU • Let it air dry—as per IFU b) Preparation of Lonofil (Glass Ionomer Restorative Material) • Place 12 mg Congo Red directly in a dental cup • Add 2 spoons of lonofil Plus as per IFU • Add 2 drops of water and mix as per IFU • Place amount of product on microscopic slide c) Incubation
Prepare the PBS Solution with 1% EtOH for preservation • Place slide in 50 ml centrifugation tube • Add 20 mL of PBS • Place on rotating wheel d) Measurement and Calculation • Directly decant 1 mL of incubated fluid into UV-Cell • Measure at 500 nm, control/blank=PBS with 1% EthOH subtract control w/o Congo Red from measured value
Example 7 was in essence carried out as Example 6, but with the self-assembling peptide P11-4, if not otherwise described. 12 mg of P11-4 (credentis AG), in monomeric form, were added to either the varnish Duraphat (Sample ID: AP) or the glass ionomer cement Aqua lonofil Plus (Sample ID BP) in the amounts and under the conditions described above. The incubation was carried out in a static manner at room temperature. Measurement was at 280 nm, and the control value for buffer without peptide was subtracted from the measured value.

Data set [2] can be described thus: Pulp capping with P11-4 solution under dental material. In kind it is in vivo. Conditions: exposed pulp covered with P11-4 solution (e.g., 100 μl, 10 mg/mL, pH 8) before Resin Composite. As to the method: A cavity exposing the pulp is excavated due to dental caries. The pulp is covered with P11-4 solution (e.g., 100 μl, 10 mg/mL, pH 8) before placing of a dental material, e.g., Resin Composite according to the manufacturer's instructions (e.g., application in layers and light curing, as appropriate).

For data set [3] the following is noted: Alkilzy et al., 2018; cited from earlier work.
Data set [4] is described as follows: Release profile of model substance Congo Red from dental materials into PBS (photometer, 500 nm). The data set is classed as physicochemical. As to the method: As well-known to the person skilled in the art, a release profile of an agent, i.e. fluoride or self-assembling peptide, depends on the matrix of the material (Mousavinasab et al., 2009, Dent Res J (Isfahan) 6(2):75-81). In the following experiment, the release profile of a model substance mimicking self-assembling peptide, Congo Red, was assessed after the incorporation into the dental material. The material was prepared and applied as per instructions for use (IFU), usually describing the use of 0.5-0.75 mL of the respective products. To mimic the saliva, Phosphate Buffered Saline (PBS) was used. PBS matches the osmolarity and ion concentrations of the human body—it is isotonic. To mimic the constant saliva flux, the applied amount was placed in a solution equal to 1 h saliva flux, which is about 20 mL. The diffusion of the material was assessed at 500 nm with a photometer. Release Profile a) Preparation of Varnish (Duraphat) and Paro Amin Fluor Gelée • Per suppliers IFU, it is recommend to add 0.5-1 mL of the varnish to a carious site. The concentration of Congo Red was chosen to lead a distinct signal in the UV Vis. • Place 12 mg Congo Red in 2 mL Eppendorf tube • Add 2 mL of the varnish directly into the tube with a syringe • Mix Congo Red and varnish vigorously until content uniformity is reached • Pick up product with syringe • Place 0.5-0.75 ml of the product on a microscopic slide as a thin film—as recommended per IFU • Let it air dry—as per IFU b) Preparation of Lonofil (Glass Ionomer Restorative Material) • Place 12 mg Congo Red directly in a dental cup • Add 2 spoons of lonofil Plus as per IFU • Add 2 drops of water and mix as per IFU • Place amount of product on microscopic slide c) Incubation Prepare the PBS Solution with 1% EtOH for preservation • Place slide in 50 ml centrifugation tube • Add 20 mL of PBS • Place on rotating wheel d) Measurement and Calculation • Directly decant 1 mL of incubated fluid into UV-Cell • Measure at 500 nm, control/blank=PBS with 1% EthOH subtract control w/o Congo Red from measured value

On to “P11-4: self-assembling peptide, sequence QQRFEWEFEQQ (P11-4)”, for which the “Speed of P11-4 release from varnish relative to glass ionomer cement” value in data set [1] (Duraphat versus Aqua Ionofil Plus, FIG. 4C) is reported as “quicker”. Moreover, in data set [1] (sample AP, 12 mg monomeric P11-4, static incubation at room temperature, FIG. 4C), the “Release of P11-4 from varnish Duraphat” value is “slowly and substantially constantly released”. In addition, the “Release of P11-4 from glass ionomer cement Aqua Ionofil Plus” value in data set [1] (sample BP, 12 mg monomeric P11-4, static incubation at room temperature, FIG. 4C) is “slowly and substantially constantly released”. Moreover, the “Amount of released peptide over time” value in data set [1] (varnish and glass ionomer cement, measured for several days) is “increases with time”. Moreover, the “Pulp symptoms (pulpitis) after pulp capping” value in data set [2] is “remains symptoms free”. The “Effect on early carious lesions in combination with fluoride, compared to fluoride alone” value in data set [3] is “additional effect”.
Regarding `Nc1c(/N=N/c2ccc(-c3ccc(/N=N/c4cc(S(=O)(=O)O)c5ccccc5c4N)cc3)cc2)cc(S(=O)(=O)O)c2ccccc12` [Congo red, Congo Red], the “Time course of Congo Red release from glass ionomer cement” value in data set [4] (Aqua Ionofil Plus, FIG. 4A) was “constant and increases with time”. For the same compound, the “Speed of Congo Red release from varnish relative to glass ionomer cement” value in data set [4] (Duraphat versus Aqua Ionofil Plus, FIG. 4A) was “quicker”. The “Release of Congo Red from paro Amin Fluor Gelée” value in data set [4] (Sample 2, used for comparison, 20 mL PBS with 1% EtOH, FIG. 4B) is “released”. Moreover, the “Release of Congo Red from varnish Duraphat” value in data set [4] (sample A1, 12 mg Congo Red in 2 mL varnish, 20 mL PBS with 1% EtOH, FIG. 4A) is recorded as “released”. For the same compound, the “Release of Congo Red from glass ionomer cement Aqua Ionofil Plus” value in data set [4] (sample B1, 12 mg Congo Red, 20 mL PBS with 1% EtOH, FIG. 4A) was “released”.
